Reference: article PMC10095550, “Design, Synthesis and Biological Evaluation of 6-(Imidazo[1,2-a]pyridin-6-yl)quinazoline Derivatives as Anticancer Agents via PI3Kα Inhibition” (International Journal of Molecular Sciences, 2023)

Target: T1, PI3Kα (Homo sapiens, UniProt P42336)
T1 construct: gene PIK3CA
Test: ADP-Glo Max kinase assay
Type: biochemical

T1 sequence (P42336 whole entry): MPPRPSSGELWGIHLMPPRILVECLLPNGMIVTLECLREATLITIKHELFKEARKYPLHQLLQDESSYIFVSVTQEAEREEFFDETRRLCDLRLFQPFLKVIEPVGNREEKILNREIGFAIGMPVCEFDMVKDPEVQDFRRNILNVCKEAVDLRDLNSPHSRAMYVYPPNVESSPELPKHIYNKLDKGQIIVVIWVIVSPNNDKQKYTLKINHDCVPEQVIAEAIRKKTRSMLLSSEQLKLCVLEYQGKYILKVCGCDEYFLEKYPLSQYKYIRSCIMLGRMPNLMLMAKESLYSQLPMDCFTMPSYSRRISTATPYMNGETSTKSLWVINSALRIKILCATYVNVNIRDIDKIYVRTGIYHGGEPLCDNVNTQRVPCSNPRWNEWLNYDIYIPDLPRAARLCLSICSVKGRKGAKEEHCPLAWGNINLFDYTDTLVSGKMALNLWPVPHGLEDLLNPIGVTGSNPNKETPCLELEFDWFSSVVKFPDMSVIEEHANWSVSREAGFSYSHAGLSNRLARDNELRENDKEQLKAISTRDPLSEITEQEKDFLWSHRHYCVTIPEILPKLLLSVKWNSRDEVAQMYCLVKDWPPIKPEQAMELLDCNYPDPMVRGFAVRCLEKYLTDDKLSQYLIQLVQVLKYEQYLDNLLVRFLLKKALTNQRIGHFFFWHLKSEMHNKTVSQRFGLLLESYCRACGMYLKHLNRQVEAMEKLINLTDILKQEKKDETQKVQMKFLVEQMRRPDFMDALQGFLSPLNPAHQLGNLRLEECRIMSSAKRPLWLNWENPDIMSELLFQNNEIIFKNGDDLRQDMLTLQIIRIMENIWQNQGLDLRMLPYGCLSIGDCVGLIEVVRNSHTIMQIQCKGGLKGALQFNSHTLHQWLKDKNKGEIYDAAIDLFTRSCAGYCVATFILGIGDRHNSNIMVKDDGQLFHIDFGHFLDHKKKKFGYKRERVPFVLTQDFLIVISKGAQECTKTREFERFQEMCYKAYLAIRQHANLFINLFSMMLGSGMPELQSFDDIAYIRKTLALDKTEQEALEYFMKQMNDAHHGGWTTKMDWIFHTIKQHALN

**Q.** With `c1ccc(-c2cn3cc(-c4ccc5ncnc(NCC6CCOCC6)c5c4)ccc3n2)cc1` [13k, 6-(2-phenylimidazo[1,2-a]pyridin-6-yl)-N-((tetrahydro-2H-pyran-4-yl)methyl)quinazolin-4-amine] as the molecule, how does the IC50 read?
**A.** 1.94 ± 0.66 nM
